Values quoted from earlier work, collected in patent US7807404B2, “Mutated truncated mt-pfkA gene for the synthesis of active shorter fragment of 6-phosphofructo-1-kinase” (Kemijski Institut, priority 2006, dated 2010).

Legend:
[1] = test system: PFK1; settings: citrate 10 mM
[2] = target: T1, PFK1 (Aspergillus niger, UniProt P78985); settings: citrate 10 mM
T1 construct: The PFK1 isolated from Aspergillus niger cells; host or cells: Aspergillus niger cells

[3] = test system: PFK1 with 8 amino acid residues cleaved from the C-terminal part
[4] = target: T2, PFK1 (Oryctolagus cuniculus, UniProt P00511)
T2 construct: the enzyme, isolated from the rabbit muscle; host or cells: rabbit muscle
T2 sequence (P00511 2-780 limits assumed): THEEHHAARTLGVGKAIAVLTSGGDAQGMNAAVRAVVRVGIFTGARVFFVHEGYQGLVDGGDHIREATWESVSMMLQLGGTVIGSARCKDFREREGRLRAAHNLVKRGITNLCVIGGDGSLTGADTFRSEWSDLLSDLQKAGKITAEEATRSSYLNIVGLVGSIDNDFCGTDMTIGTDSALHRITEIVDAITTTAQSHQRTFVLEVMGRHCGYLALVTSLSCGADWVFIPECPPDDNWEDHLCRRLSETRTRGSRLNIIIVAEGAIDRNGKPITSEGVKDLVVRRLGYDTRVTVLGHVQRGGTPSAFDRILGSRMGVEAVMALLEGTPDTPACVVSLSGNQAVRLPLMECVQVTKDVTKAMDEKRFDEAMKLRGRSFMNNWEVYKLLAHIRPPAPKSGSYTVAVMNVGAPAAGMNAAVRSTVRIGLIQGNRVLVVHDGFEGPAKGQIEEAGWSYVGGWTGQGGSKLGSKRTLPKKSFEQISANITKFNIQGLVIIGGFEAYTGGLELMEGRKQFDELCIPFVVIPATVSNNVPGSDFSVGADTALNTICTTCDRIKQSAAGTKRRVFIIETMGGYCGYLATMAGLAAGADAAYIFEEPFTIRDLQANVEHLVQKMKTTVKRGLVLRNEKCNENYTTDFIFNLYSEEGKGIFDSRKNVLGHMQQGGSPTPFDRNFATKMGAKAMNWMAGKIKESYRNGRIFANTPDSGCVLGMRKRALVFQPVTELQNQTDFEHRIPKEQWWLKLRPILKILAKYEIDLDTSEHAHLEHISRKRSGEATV

T1 sequence (P78985 whole entry): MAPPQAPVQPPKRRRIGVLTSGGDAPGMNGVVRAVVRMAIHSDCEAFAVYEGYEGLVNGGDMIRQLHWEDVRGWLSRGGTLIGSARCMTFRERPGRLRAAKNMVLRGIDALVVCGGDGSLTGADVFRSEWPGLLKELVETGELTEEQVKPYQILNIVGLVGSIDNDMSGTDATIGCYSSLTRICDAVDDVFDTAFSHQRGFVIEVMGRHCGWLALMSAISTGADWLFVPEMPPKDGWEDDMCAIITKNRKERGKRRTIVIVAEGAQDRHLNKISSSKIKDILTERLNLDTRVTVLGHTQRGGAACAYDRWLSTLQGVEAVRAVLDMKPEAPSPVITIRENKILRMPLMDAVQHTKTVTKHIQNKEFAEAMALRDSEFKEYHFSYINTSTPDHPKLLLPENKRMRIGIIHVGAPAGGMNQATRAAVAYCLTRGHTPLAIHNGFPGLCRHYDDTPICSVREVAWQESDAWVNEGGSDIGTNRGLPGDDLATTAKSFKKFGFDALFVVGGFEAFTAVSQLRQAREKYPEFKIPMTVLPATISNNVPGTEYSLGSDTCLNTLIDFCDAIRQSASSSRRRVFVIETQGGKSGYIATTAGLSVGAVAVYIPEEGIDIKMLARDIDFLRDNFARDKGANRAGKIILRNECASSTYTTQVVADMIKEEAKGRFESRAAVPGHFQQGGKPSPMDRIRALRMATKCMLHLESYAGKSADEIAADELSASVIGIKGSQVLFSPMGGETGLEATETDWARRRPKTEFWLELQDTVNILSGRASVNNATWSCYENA

O=C(O)CC(O)(CC(=O)O)C(=O)O [citrate]
maximal velocity retained [1]: 20%
effect on catalytic activity [2]: almost prevented its catalytic activity
citrate concentration at which the enzyme lost its activity [3]: 10 mM
citrate concentration at which the enzyme was completely inactivated [4]: 2.5 mM
